Measurements published in patent publication US6355799B1, “Substituted benzene compounds, process for their preparation, and herbicidal and defoliant compositions containing them” (ISK Americas Incorporated, priority 1997, dated 2002).

Columns and labels:
Type in all cases: in vivo
[1] = test system: redroot pigweed (Amaranthus retroflexus, AMARE); experiment: Pre-emerge test, greenhouse herbicide activity screening; conditions: phytotoxicity rating 0-100, 14 days after application
In short: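 Plants grown in 10 cm pots of sandy loam mix received acetone-dissolved compounds through a moving flat-fan nozzle. Doses ranged from 15 to 1000 g ai/ha. Pre-emerge pots were seeded one day earlier, post-emerge pots 8–21 days earlier. Fourteen days on, each pot was graded 0–100 for damage.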

[2] = test system: barnyardgrass (Echinochloa crus-galli, ECHCG); experiment: as above; conditions: phytotoxicity rating 0-100, 14 days after application
In short: (§1)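 Compounds in acetone were track-sprayed at 187 l/ha, 15–1000 g ai/ha, onto sandy loam pots. Pre-emerge seeds were sown one day before spraying, with surface watering afterwards. Post-emerge plants were at the 2–3 leaf stage and sprayed with 0.25% v/v non-ionic surfactant. Injury was rated 0–100 at 14 days.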

[3] = test system: green foxtail (Setaria viridis, SETVI); experiment: as above; conditions: phytotoxicity rating 0-100, 14 days after application
In short: as §1

[4] = test system: ivyleaf morningglory (Ipomoea hederacea, IPOHE); experiment: as above; conditions: phytotoxicity rating 0-100, 14 days after application
In short: as §1

[5] = test system: johnsongrass (Sorghum halepense, SORHA); experiment: as above; conditions: phytotoxicity rating 0-100, 14 days after application
In short: as §1

[6] = test system: lambsquarters (Chenopodium album, CHEAL); experiment: as above; conditions: phytotoxicity rating 0-100, 14 days after application
In short: as §1

[7] = test system: large crabgrass (Digitaria sanguinalis, DIGSA); experiment: as above; conditions: phytotoxicity rating 0-100, 14 days after application
In short: as §1

[8] = test system: sicklepod (Cassia obtusifolia, CASOB); experiment: as above; conditions: phytotoxicity rating 0-100, 14 days after application
In short: as §1

[9] = test system: velvetleaf (Abutilon theophrasti, ABUTH); experiment: as above; conditions: phytotoxicity rating 0-100, 14 days after application
In short: as §1

[10] = test system: field corn (Zea mays L., var. Dekalb 535, CORN); experiment: Pre-emerge test, crop safety; conditions: crop damage rating 0-100, 14 days after application
In short: (§2)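 Fourteen days after spraying, crop and weed injury was graded visually from 0, no effect, to 100, every plant dead. Test substances were dissolved in acetone and applied at 15–1000 g ai/ha with a flat-fan nozzle. Application was either pre-emergence, one day after sowing, or post-emergence at the 2–3 leaf stage.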

[11] = test system: upland rice (Oryza sp., var. Tebonnet, RICE); experiment: Pre-emerge test, crop safety; conditions: crop damage rating 0-100, 14 days after application
In short: as §2

[12] = test system: barnyardgrass (Echinochloa crus-galli, ECHCG); experiment: Post-emerge test, greenhouse herbicide activity screening; conditions: post-emerge, 14 days after application, rating scale 0-100
In short: as §2

[13] = test system: green foxtail (Setaria viridis, SETVI); experiment: as above; conditions: post-emerge, 14 days after application, rating scale 0-100
In short: as §2

[14] = test system: ivyleaf morningglory (Ipomoea hederacea, IPOHE); experiment: as above; conditions: post-emerge, 14 days after application, rating scale 0-100
In short: as §2

[15] = test system: johnsongrass (Sorghum halepense, SORHA); experiment: as above; conditions: post-emerge, 14 days after application, rating scale 0-100
In short: as §2

[16] = test system: large crabgrass (Digitaria sanguinalis, DIGSA); experiment: as above; conditions: post-emerge, 14 days after application, rating scale 0-100
In short: as §2

[17] = test system: redroot pigweed (Amaranthus retroflexus, AMARE); experiment: as above; conditions: post-emerge, 14 days after application
In short: as §2

[18] = test system: sicklepod (Cassia obtusifolia, CASOB); experiment: as above; conditions: post-emerge, 14 days after application, rating scale 0-100
In short: as §2

[19] = test system: velvetleaf (Abutilon theophrasti, ABUTH); experiment: as above; conditions: post-emerge, 14 days after application, rating scale 0-100
In short: as §2

[20] = test system: field corn (Zea mays L., var. Dekalb 535, CORN); experiment: Post-emerge test, crop safety; conditions: post-emerge, 14 days after application, rating scale 0-100
In short: as §1

[21] = test system: upland rice (Oryza sp., var. Tebonnet, RICE); experiment: Post-emerge test, crop safety; conditions: post-emerge, 14 days after application, rating scale 0-100
In short: as §1

**Q.** What does the source list for `CCOC(=O)C(C)Oc1c(Cl)cc(F)c(-n2c(=O)cc(C(F)(F)F)n(C)c2=O)c1NC(=O)c1ccc2ccccc2c1` (stereo not drawn) [2-191]?
**A.** Pre-emerge Herbicidal Activity AMARE ([1]; 63 g ai/ha): 100; Pre-emerge Herbicidal Activity AMARE ([1]; 250 g ai/ha): 100; Pre-emerge Herbicidal Activity ECHCG ([2]; 63 g ai/ha): 0; Pre-emerge Herbicidal Activity ECHCG ([2]; 250 g ai/ha): 10; Pre-emerge Herbicidal Activity SETVI ([3]; 63 g ai/ha): 40; Pre-emerge Herbicidal Activity SETVI ([3]; 250 g ai/ha): 80; Pre-emerge Herbicidal Activity IPOHE ([4]; 63 g ai/ha): 10; Pre-emerge Herbicidal Activity IPOHE ([4]; 250 g ai/ha): 40; Pre-emerge Herbicidal Activity SORHA ([5]; 63 g ai/ha): 0; Pre-emerge Herbicidal Activity SORHA ([5]; 250 g ai/ha): 50; Pre-emerge Herbicidal Activity CHEAL ([6]; 63 g ai/ha): 100; Pre-emerge Herbicidal Activity CHEAL ([6]; 250 g ai/ha): 100; Pre-emerge Herbicidal Activity DIGSA ([7]; 63 g ai/ha): 0; Pre-emerge Herbicidal Activity DIGSA ([7]; 250 g ai/ha): 70; Pre-emerge Herbicidal Activity CASOB ([8]; 63 g ai/ha): 10; Pre-emerge Herbicidal Activity CASOB ([8]; 250 g ai/ha): 30; Pre-emerge Herbicidal Activity ABUTH ([9]; 63 g ai/ha): 80; Pre-emerge Herbicidal Activity ABUTH ([9]; 250 g ai/ha): 100; Pre-emerge Herbicidal Activity CORN ([10]; 63 g ai/ha): 0; Pre-emerge Herbicidal Activity CORN ([10]; 250 g ai/ha): 0; Pre-emerge Herbicidal Activity RICE ([11]; 63 g ai/ha): 10; Pre-emerge Herbicidal Activity RICE ([11]; 250 g ai/ha): 20; phytotoxicity rating ECHCG ([12]; 63 g ai/ha): 0; phytotoxicity rating ECHCG ([12]; 250 g ai/ha): 0; phytotoxicity rating SETVI ([13]; 63 g ai/ha): 0; phytotoxicity rating SETVI ([13]; 250 g ai/ha): 10; phytotoxicity rating IPOHE ([14]; 63 g ai/ha): 80; phytotoxicity rating IPOHE ([14]; 250 g ai/ha): 100; phytotoxicity rating SORHA ([15]; 63 g ai/ha): 0; phytotoxicity rating SORHA ([15]; 250 g ai/ha): 0; phytotoxicity rating DIGSA ([16]; 63 g ai/ha): 0; phytotoxicity rating DIGSA ([16]; 250 g ai/ha): 0; phytotoxicity rating AMARE ([17]; 63 g ai/ha, rating scale 0-100 (0 no damage, 100 complete death)): 40; phytotoxicity rating AMARE ([17]; 250 g ai/ha, rating scale 0-100): 90; phytotoxicity rating CASOB ([18]; 63 g ai/ha): 30; phytotoxicity rating CASOB ([18]; 250 g ai/ha): 80; phytotoxicity rating ABUTH ([19]; 63 g ai/ha): 70; phytotoxicity rating ABUTH ([19]; 250 g ai/ha): 90; phytotoxicity rating CORN (crop damage) ([20]; 63 g ai/ha): 10; phytotoxicity rating CORN (crop damage) ([20]; 250 g ai/ha): 20; phytotoxicity rating RICE (crop damage) ([21]; 63 g ai/ha): 10; phytotoxicity rating RICE (crop damage) ([21]; 250 g ai/ha): 20
